In US20250319095A1, “USE OF BENZO[…] INCREASE SENSITIVITY TO […] A CHRONIC SSRI REGIMEN” (Compass Pathfinder Limited, priority 2020, published 2025):
Several values for one entry are separate records, joined by “and”; a condition that tells them apart may be missing. Identical values can stand only once.

Columns and labels:
[1] = oral dose equivalence; cited from earlier work
[2] = test system: male C57BL/6J mice; assay: Psilocybin head twitch response with chronic diazepam pre-treatment; format: in vivo
Description: Sixty-two (60 plus 2 spares;) male C57BL/6J mice (20-25 g upon arrival) were purchased from Charles River UK. Animals were group housed (in 3 s and a pair) in polypropylene cages. Mice were maintained on a normal phase 12 h light-dark cycle (lights on: 07:00-19:00 h) with free access to standard rodent maintenance diet (standard pelleted diet Envigo 2018) and filtered tap water. The holding room was maintained at a temperature of 21±4° C. and relative humidity was 55±15% with prolonged periods below 40% RH or above 70% RH avoided as detailed in the UK Code of Practice. As a refinement, each cage contained sawdust, sizzle nest, a red house, Perspex tunnel, plastic chew stick and a nestlet so that the mice can make nests and facilitate warmth. Mice were weighed upon arrival and provided with wet mash overnight. The following morning, mice were weighed, and the mash removed.
Mice were weighed and allocated into 6 treatment groups by a statistician (as per Table 20 below). […] For groups A-D animals were placed individually in clean cages with a light dusting of sawdust immediately following psilocybin administration (0.3 mg/kg, s.c) for head twitch response assessment. Head twitches were counted by a trained observer over a 30 minute period.
Statistical significance was tested using two-way analysis of variance with treatment and observer as cofactors (Table 21 below).

[3] = biological target: T1, 5HT2A (Mus musculus, UniProt P35363); assay: [3H]MDL100907 binding in frontal cortical membranes (5HT2A Kd and Bmax)
T1 construct: homogenates were prepared from frontal cortices sampled from groups E and F; from tissue; host or cells: mouse frontal cortex membranes (homogenate)
T1 sequence (P35363 whole entry): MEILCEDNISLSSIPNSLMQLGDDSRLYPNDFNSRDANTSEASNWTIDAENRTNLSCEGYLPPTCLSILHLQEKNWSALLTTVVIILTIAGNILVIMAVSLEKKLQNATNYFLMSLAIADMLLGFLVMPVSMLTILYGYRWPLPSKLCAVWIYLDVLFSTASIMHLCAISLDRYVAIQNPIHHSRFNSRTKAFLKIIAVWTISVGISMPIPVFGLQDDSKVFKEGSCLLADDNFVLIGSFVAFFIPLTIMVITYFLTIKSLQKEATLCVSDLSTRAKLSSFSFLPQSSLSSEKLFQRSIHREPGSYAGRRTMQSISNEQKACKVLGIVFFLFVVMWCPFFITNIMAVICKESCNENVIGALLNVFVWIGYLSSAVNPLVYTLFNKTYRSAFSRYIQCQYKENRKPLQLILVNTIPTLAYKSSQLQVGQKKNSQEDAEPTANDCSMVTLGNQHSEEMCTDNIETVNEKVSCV
Description: To prepare the homogenate, frontal cortices from each animal were homogenized individually in 40 volumes (w/v) of ice cold assay buffer using a tight-fitting glass/Teflon homogenizer and centrifuged at 39,500×g for 10 min. The supernatant was discarded, and the pellet re-suspended in 40 volumes (w/v) of assay buffer and the tissue washed by centrifugation two more times. The final pellet was re-suspended in ice-cold assay buffer to 6.25 mg weight wet of tissue/ml and used immediately in the binding assay. Aliquots of final membrane preparations were also stored at −80 C until required for protein determination. All centrifugations will be carried out at 4° C.
To examine binding, the frontal cortical membranes (400 μl; equivalent to 2.5 mg wet weight of tissue/tube) were incubated with 50 μl of [3H] MDL 100907 (8 concentrations: 0.025, 0.05, 0.1, 0.2, 0.4, 0.8, 1.6, 3.2 nM) and either 50 μl of buffer (total binding) or 50 μl of 10 μM ketanserin (to define nonspecific binding) for 60 min at 25 C. […]
Membrane bound radioactivity was recovered by filtration under vacuum through Skatron 11731 filters, presoaked in 0.5% polyethylenimine (PEI) using a Skatron cell harvester. Filters were rapidly washed with ice cold wash buffer (wash setting 9,9,0) and radioactivity determined by liquid scintillation counting (1 ml Packard MV Gold scintillator). […]

SMILES | Relative Potency [1] [mg] | also measured
Cc1nnc2n1-c1ccc(Cl)cc1C(c1ccccc1)=NC2 [Alprazolam, alprazolam] | 0.5 | 
O=C1CN=C(c2ccccc2Cl)c2cc([N+](=O)[O-])ccc2N1 [Clonazepam, clonazepam] | 0.25 to 0.5 | 
O=C(O)C1N=C(c2ccccc2)c2cc(Cl)ccc2NC1=O (stereo not drawn) [Clorazepate, clorazepate] | 7 | 
CN1C(=O)CN=C(c2ccccc2)c2cc(Cl)ccc21 [Diazepam, diazepam] |  | psilocybin HTR, change with diazepam pretreatment ([2]; 2 h post diazepam pretreatment): trend increase; HTR, change with diazepam pretreatment ([2]; HTR at 10-15 and 20-25 minutes analyzed separately): significant increase; HTR, change with diazepam pretreatment ([2]; over 30 minutes): trend increase; Bmax (fmoles/mg protein) [3]: 271 fmoles/mg protein and 339 fmoles/mg protein and 334 fmoles/mg protein and 360 fmoles/mg protein and 314 fmoles/mg protein and 376 fmoles/mg protein; Bmax (pM) [3]: 74.0 pM and 78.3 pM and 77.8 pM and 93.6 pM and 87.2 pM and 87.6 pM
Clc1ccc2c(c1)C(c1ccccc1)=NCc1nncn1-2 [Estazolam, estazolam] | 0.5 to 1 | 
CCN(CC)CCN1C(=O)CN=C(c2ccccc2F)c2cc(Cl)ccc21 [Flurazepam, flurazepam] | 10 | 
O=C1Nc2ccc(Cl)cc2C(c2ccccc2Cl)=NC1O (stereo not drawn) [Lorazepam, lorazepam] | 1 | 
Cc1ncc2n1-c1ccc(Cl)cc1C(c1ccccc1F)=NC2 [Midazolam, midazolam] | 3.3 | 
Fc1ccccc1C1=NCC(=S)N(CC(F)(F)F)c2ccc(Cl)cc21 [Quazepam, quazepam] | 13 | 
CN1C(=O)C(O)N=C(c2ccccc2)c2cc(Cl)ccc21 (stereo not drawn) [Temazepam, temazepam] | 10 | 
Cc1nnc2n1-c1ccc(Cl)cc1C(c1ccccc1Cl)=NC2 [Triazolam, triazolam] | 0.25 | 
